According to ChEMBL document CHEMBL2385067, “Preparation of S14161 and its analogues and the discovery of 6-bromo-8-ethoxy-3-nitro-2H-chromene as a more potent antitumor agent in vitro” (2013):
Active and inactive are the calls of the source. The calls are words filed in the database; no cut-off is given here.

Experiments:
LP-1 = assay: Cytotoxicity against human LP-1 cells after 24 to 72 hrs by SRB assay; assay type: functional
K562 = assay: Cytotoxicity against human K562 cells after 24 to 72 hrs by SRB assay; assay type: functional
SK-OV-3 [1] = assay: Inhibition of PI3K in human SKOV3 cells assessed as inhibition of EGF1-induced AKT phosphorylation up to 20 uM after 24 hrs by Western blot analysis; assay type: cell-based
A549 [2] = assay: Induction of apoptosis in human A549 cells assessed as activation of caspase-3 at 10 uM; assay type: functional, cell-based
HeLa [3] = assay: Growth inhibition of human HeLa cells at 20 uM after 24 hrs by SRB assay; assay type: functional
SK-OV-3 [4] = assay: Growth inhibition of human SKOV3 cells at 20 uM after 72 hrs by SRB assay; assay type: functional, cell-based
HeLa [5] = assay: Growth inhibition of human HeLa cells at 20 uM after 72 hrs by SRB assay; assay type: functional, cell-based
H47D [6] = assay: Growth inhibition of human H47D cells at 20 uM after 72 hrs by SRB assay; assay type: functional, cell-based
A549 [7] = assay: Growth inhibition of human A549 cells at 20 uM after 72 hrs by SRB assay; assay type: functional, cell-based
A549 [8] = assay: Growth inhibition of human A549 cells at 5 to 20 uM after 24 hrs by SRB assay; assay type: functional, cell-based
PC-3 = assay: Growth inhibition of human PC3 cells at 20 uM after 72 hrs by SRB assay; assay type: functional, cell-based
MDA-MB-231 = assay: Cytotoxicity against human MDA-MB-231 cells after 24 to 72 hrs by SRB assay; assay type: functional
NCI-H460 = assay: Growth inhibition of human H460 cells at 20 uM after 72 hrs by SRB assay; assay type: functional, cell-based
[9] = Cytotoxicity against human U87 cells after 24 to 72 hrs by SRB assay; assay type: functional, U-87MG ATCC; settings: U-87 MG
HeLa [10] = assay: Growth inhibition of human HeLa cells at 5 uM after 24 hrs by SRB assay; assay type: functional, cell-based
HeLa [11] = assay: Inhibition of PI3K in human HeLa cells assessed as inhibition of EGF1-induced AKT phosphorylation up to 20 uM after 24 hrs by Western blot analysis; assay type: cell-based
HUVEC = assay: Antiangiogenic activity in HUVEC assessed as inhibition of cell migration by measuring area of wounded gap at 5 uM after 8 to 24 hrs by wound healing assay; assay type: functional, Homo sapiens; set-up: scale not given: the % may be the effect or the level left
B16 = assay: Cytotoxicity against mouse B16 cells after 24 to 72 hrs by SRB assay; assay type: functional
SPCA1 = assay: Growth inhibition of human SPCA1 cells at 20 uM after 72 hrs by SRB assay; assay type: functional, cell-based
A549 [12] = assay: Inhibition of PI3K in human A549 cells assessed as inhibition of EGF1-induced AKT protein level up to 20 uM after 24 hrs by Western blot analysis; assay type: cell-based
HeLa [13] = assay: Inhibition of PI3K in human HeLa cells assessed as inhibition of EGF1-induced AKT protein level up to 20 uM after 24 hrs by Western blot analysis; assay type: cell-based
A549 [14] = assay: Inhibition of PI3K in human A549 cells assessed as inhibition of EGF1-induced AKT phosphorylation up to 20 uM after 24 hrs by Western blot analysis; assay type: cell-based
SK-OV-3 [15] = assay: Inhibition of PI3K in human SKOV3 cells assessed as inhibition of EGF1-induced AKT protein level up to 20 uM after 24 hrs by Western blot analysis; assay type: cell-based
H47D [16] = assay: Inhibition of PI3K in human H47D cells assessed as inhibition of EGF1-induced AKT phosphorylation up to 20 uM after 24 hrs by Western blot analysis; assay type: cell-based
A549 [17] = assay: Induction of apoptosis in human A549 cells assessed as activation of caspase-3 at 5 uM; assay type: functional, cell-based
H47D [18] = assay: Inhibition of PI3K in human H47D cells assessed as inhibition of EGF1-induced AKT protein level up to 20 uM after 24 hrs by Western blot analysis; assay type: cell-based
HeLa [19] = assay: Growth inhibition of human HeLa cells after 24 hrs by SRB assay; assay type: functional, cell-based

Structure (SMILES) | GI50 (LP-1) [µM] | GI50 (K562) [µM] | inhibition (SK-OV-3 [1]) | Activity (A549 [2]) | growth inhibition (GI) (SK-OV-3 [4]) | growth inhibition (GI) (HeLa [5]) | growth inhibition (GI) (H47D [6]) | growth inhibition (GI) (A549 [7]) | growth inhibition (GI) (A549 [8]) | growth inhibition (GI) (PC-3) | GI50 (MDA-MB-231) [µM] | growth inhibition (GI) (NCI-H460) | GI50 [9] [µM] | growth inhibition (GI) (HeLa [10]) | inhibition (HeLa [11]) | Activity (HUVEC) [%] | GI50 (B16) [µM] | growth inhibition (GI) (SPCA1) | further results
CCOc1cccc2c1OCC([N+](=O)[O-])=C2 | 0.64 | 1.68 | – | – | – | – | – | – | – | – | – | – | – | – | – | – | – | – | –
CCOc1cccc2c1OC(c1ccc(OC)cc1)C([N+](=O)[O-])=C2 (centres undefined) | 3.16 | 4.86 | – | – | – | – | – | – | – | – | – | – | – | – | – | – | – | – | –
CCOc1cccc2c1OC(c1ccc(F)cc1)C([N+](=O)[O-])=C2 (centres undefined) | 0.57 | 1.24 | Active | Active | Active | Active | Active | Active | Active | Active | 8.53 | Active | 18.7 | Active | Active | <50 | 23.3 | Active | growth inhibition (GI) (HeLa [3]): Active
CCOc1cccc2c1OC(c1ccc(C#N)cc1)C([N+](=O)[O-])=C2 (centres undefined) | 0.44 | 1.02 | – | – | – | – | – | – | – | – | – | – | – | – | – | – | – | – | –
CCOc1cc(Br)cc2c1OCC([N+](=O)[O-])=C2 | 0.33 | 0.92 | Active | Active | Active | Active | Active | Active | Active | Active | 2.03 | Active | 12.6 | Active | Active | 20 | 20.4 | Active | inhibition (A549 [12]): inactive; inhibition of growth at 20 µM (HeLa [3]; read-out: GI): > 90%; inhibition (HeLa [13]): inactive; inhibition (A549 [14]): Active; inhibition (SK-OV-3 [15]): inactive; inhibition (H47D [16]): Active; Activity (A549 [17]): Active; inhibition (H47D [18]): inactive; growth inhibition (GI) (HeLa [19]): Dose-dependent effect
CCOc1cccc2c1OC(c1ccccc1)C([N+](=O)[O-])=C2 (centres undefined) | 0.96 | 1.18 | – | – | – | – | – | – | – | – | – | – | – | – | – | – | – | – | –
